Read-outs that look alike come from different tables or passages of the source.
Tests used:
[1] = test system: human MCF-7 breast cancer cells; assay: growth of hormone-dependent human MCF-7 breast cancer cells, cell count; assay type: cell-based; settings: for activity at 0.1 µM / activity at 0.5 µM / activity at 1 µM / activity at 5 µM / activity at 10 µM: Homo sapiens, read-out: Cell Count (% T/C); for activity at 10 µM: MCF-7, 1 × 10^-5 M
Text: (§1) The test protocol for the research is fully described in Eur.J. Cancer Clin. Oncol.

[2] = test system: human MCF-7 breast cancer cells; assay: [3H] thymidine incorporation in hormone-dependent human MCF-7 breast cancer cells; assay type: cell-based; settings: for activity at 0.1 µM / activity at 0.5 µM / activity at 1 µM / activity at 5 µM: Homo sapiens, read-out: [3H] Thymidine incorporation (% T/C)
Text: as §1

[3] = test system: mouse uterus; assay: Uterotrophic test on infantile mouse (estrogen activity); assay type: in vivo; set-up: unit not given here
Text: (§2) This test is fully described in Cancer Treatment Reviews 1984, 11, 147, and J.Med.Chem., 1984, 27, 1439.

[4] = test system: mouse uterus; assay: Antiuterotrophic test on infantile mouse (anti-estrogen activity); assay type: in vivo; set-up: Antiuterotrophic Test Rel. uterus wgt / Antiuterotrophic Test Action (rel. uterus wgt): unit not given here; settings: for inhibition in vivo at 0.025 mg: dose 25 ug (per animal); for inhibition in vivo at 0.005 mg: dose 5 ug (per animal)
Text: as §2

[5] = target: T1, estrogen receptor (Bos taurus, UniProt P49884); assay: relative binding affinity (RBA) for the estrogen receptor from calf uterus, displacement of 3H-17β estradiol; settings: calf uterus; relative to 17 beta estradiol = 100
T1 construct: estrogen receptor from calf uterus; from tissue; host or cells: calf uterus
T1 sequence (P49884 1-596): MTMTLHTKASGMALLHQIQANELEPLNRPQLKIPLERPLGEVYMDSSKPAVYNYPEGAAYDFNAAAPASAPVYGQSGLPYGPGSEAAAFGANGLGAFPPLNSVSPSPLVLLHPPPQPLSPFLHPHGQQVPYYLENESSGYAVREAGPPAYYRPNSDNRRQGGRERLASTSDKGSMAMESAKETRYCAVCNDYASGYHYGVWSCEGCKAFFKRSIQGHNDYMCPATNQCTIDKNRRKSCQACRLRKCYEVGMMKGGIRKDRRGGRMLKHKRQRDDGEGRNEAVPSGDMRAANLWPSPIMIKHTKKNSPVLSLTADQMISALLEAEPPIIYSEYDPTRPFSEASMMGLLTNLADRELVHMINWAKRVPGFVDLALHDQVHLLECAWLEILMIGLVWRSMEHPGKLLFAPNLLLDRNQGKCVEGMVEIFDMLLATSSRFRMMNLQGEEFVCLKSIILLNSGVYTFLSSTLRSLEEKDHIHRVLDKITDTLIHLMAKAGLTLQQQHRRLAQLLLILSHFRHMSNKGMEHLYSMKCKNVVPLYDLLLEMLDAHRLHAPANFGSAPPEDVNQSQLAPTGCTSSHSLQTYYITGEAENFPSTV
Text: *Relative binding affinities for the estrogen receptor from calf uterus,

[6] = 10^-7 M, six days after incubation
[7] = Mus musculus, read-out: Antiuterotrophic Test Inhib. (%)
[8] = infantile mouse, read-out: Antiuterotrophic Test Inhib. (%)
[9] = infantile mouse, dose 5 ug/animal
[10] = infantile mouse, dose 25 ug/animal
[11] = infantile mouse, dose 625 ug/animal
[12] = infantile mouse, dose 625 ug/animal, read-out: Antiuterotrophic Test Inhib. (%)

For `Cc1c(-c2ccc(O)cc2)n(CCCCCCN2CCCC2)c2ccc(O)cc12` [Compound 6, 5-Hydroxy-2-(4-hydroxyphenyl)-3-methyl-1-[6-pyrrolidino-hexyl]-indole], the activity at 0.1 µM ([1]; MCF7, […]) was 65%, the activity at 0.5 µM ([1]; MCF7, […]) was 49% and the activity at 1 µM ([1]; MCF7, […]) was 24%. It also gave an activity at 5 µM ([1]; MCF7, […]) of 12%, an activity at 0.1 µM ([2]; MCF7, […]) of 32% and an activity at 0.5 µM ([2]; MCF7, […]) of 32%. For the same compound, the activity at 1 µM ([2]; MCF7, […]) was 22%, the activity at 5 µM ([2]; MCF7, […]) was 3% and the “Uterotrophic Test Rel. uterus wgt” value ([3]; dose 5 ug) was 9.0 ± 1.8. For the same compound, the “Uterotrophic Test Rel. uterus wgt” value ([3]; dose 50 ug) was 8.2 ± 1.8, the “Uterotrophic Test Rel. uterus wgt” value ([3]; dose 250 ug) was 12.7 ± 2.7 and the inhibition in vivo at 0.001 mg ([4]; Mus musculus, read-out: Antiuterotrophic Test Inhib. (%), infantile mouse, dose 1 ug) was 20%. The “Antiuterotrophic Test Rel. uterus wgt” value ([4]; infantile mouse, dose 1 ug) was 48.3 ± 7.2, the “Antiuterotrophic Test Rel. uterus wgt” value ([4]; infantile mouse, dose 5 ug) was 20.1 ± 7.3 and the “Antiuterotrophic Test Rel. uterus wgt” value ([4]; infantile mouse, dose 25 ug) was 12.6 ± 1.9. The “Antiuterotrophic Test Rel. uterus wgt” value ([4]; infantile mouse, dose 125 ug) was 8.9 ± 1.6.
For `CC/C(=C(\c1ccccc1)c1ccc(OCCN(C)C)cc1)c1ccccc1` [Tamoxifen, reference compound], the “inhibition of MCF-7 cell growth / cell count (in words)” value [1, 6] was “no significant effect”, the activity at 1 µM ([1]; MCF7, MCF-7, 1 × 10^-6 M) was 27% and the activity at 0.1 µM ([1]; MCF7, MCF-7, 1 × 10^-7 M) was 77%. For the same compound, the “thymidine incorporation (in words)” value [2, 6] was “no significant effect”, the activity at 1 µM ([2]; MCF7, MCF-7, 1 × 10^-6 M) was 27% and the activity at 0.1 µM ([2]; MCF7, MCF-7, 1 × 10^-7 M) was 71%.
Compound `Cc1c(-c2ccc(O)cc2)n(CCCCN2CCCC2)c2ccc(O)cc12` [Compound 1, 5-Hydroxy-2-(4-hydroxyphenyl)-3-methyl-1-[4-pyrrolidino-butyl]-indole] has an activity at 1 µM ([1]; MCF7, MCF-7, 1 × 10^-6 M) of 94%, an activity at 0.1 µM ([1]; MCF7, MCF-7, 1 × 10^-7 M) of 106% and an activity at 5 µM ([1]; MCF7, MCF-7, 5 × 10^-6 M) of 62%. For the same compound, the activity at 0.5 µM ([1]; MCF7, MCF-7, 5 × 10^-7 M) was 84%, the activity at 1 µM ([2]; MCF7, MCF-7, 1 × 10^-6 M) was 85% and the activity at 0.1 µM ([2]; MCF7, MCF-7, 1 × 10^-7 M) was 67%. The activity at 5 µM ([2]; MCF7, MCF-7, 5 × 10^-6 M) was 74%, the activity at 0.5 µM ([2]; MCF7, MCF-7, 5 × 10^-7 M) was 76% and the “Uterotrophic Test Rel. uterus wgt” value ([3]; dose 1 ug) was 7.6 ± 2.8. For the same compound, the “Uterotrophic Test Rel. uterus wgt” value ([3]; dose 5 ug) was 8.0 ± 3.1, the “Uterotrophic Test Rel. uterus wgt” value ([3]; dose 25 ug) was 6.4 ± 1.1 and the “Uterotrophic Test Rel. uterus wgt” value ([3]; dose 125 ug) was 6.4 ± 1.3. For the same compound, the “RBA (relative binding affinity for the estrogen receptor)” value [5] was 3.6, the inhibition in vivo at 0.125 mg [4, 7] was 53% and the “Antiuterotrophic Test Rel. uterus wgt” value ([4]; infantile mouse, dose 1 ug) was 43.7 ± 8.2. The inhibition in vivo at 0.001 mg ([4]; infantile mouse, dose 1 ug, read-out: Antiuterotrophic Test Inhib. (%)) was 5%, the “Antiuterotrophic Test Rel. uterus wgt” value ([4]; infantile mouse, dose 5 ug) was 47.6 ± 10.5 and the “Antiuterotrophic Test Rel. uterus wgt” value ([4]; infantile mouse, dose 25 ug) was 16.2 ± 4.6. For the same compound, the inhibition in vivo at 0.025 mg [4, 8] was 78% and the “Antiuterotrophic Test Rel. uterus wgt” value ([4]; infantile mouse, dose 125 ug) was 25.5 ± 7.9.
`Cc1c(-c2ccc(O)cc2)n(CCCCCCNCc2ccccc2)c2ccc(O)cc12` [Compound 12, 1-(6-Benzylaminohexyl)-5-hydroxy-2-(4-hydroxyphenyl)-3-methyl-indole] was tested, and the activity at 10 µM ([1]; MCF7) was 41%, the activity at 1 µM ([1]; MCF7, MCF-7, 1 × 10^-6 M) was 46% and the activity at 0.1 µM ([1]; MCF7, MCF-7, 1 × 10^-7 M) was 47%. For the same compound, the “Uterotrophic Test Action (rel. uterus wgt)” value ([3]; dose 5 ug/animal) was 17.8 ± 4.6, the “Uterotrophic Test Action (rel. uterus wgt)” value ([3]; dose 25 ug/animal) was 23.6 ± 2.5 and the “RBA (relative binding affinity for the estrogen receptor)” value [5] was 15. The inhibition in vivo at 0.125 mg [4, 7] was 51%, the inhibition in vivo at 0.005 mg [4, 8] was 25% and the “Antiuterotrophic Test Action (rel. uterus wgt)” value (from here on “Antiuterotrophic Test Action”) [4, 9] was 53.2 ± 9.0. The inhibition in vivo at 0.025 mg [4, 8] was 43%, the “Antiuterotrophic Test Action” value [4, 10] was 44.6 ± 7.1 and the “Antiuterotrophic Test Action” value [4, 11] was 41.8 ± 7.4. The inhibition in vivo at 0.625 mg [4, 12] was 49%.
With `Cc1c(-c2ccc(O)cc2)n(CCCCCC(=O)N2CCCCC2)c2ccc(O)cc12` [Compound 17, 5-Hydroxy-2-(4-hydroxyphenyl)-3-methyl-1-(6-piperidinocarbonylpentyl)-indole] the activity at 10 µM ([1]; MCF7) was 86.5 ± 8.3%, the activity at 1 µM ([1]; MCF7, MCF-7, 1 × 10^-6 M) was 96 ± 7.7% and the activity at 0.1 µM ([1]; MCF7, MCF-7, 1 × 10^-7 M) was 89 ± 10.8%. The activity at 5 µM ([1]; MCF7, MCF-7, 5 × 10^-6 M) was 99.6 ± 7.6%, the activity at 0.5 µM ([1]; MCF7, MCF-7, 5 × 10^-7 M) was 95.5 ± 10.2% and the “Uterotrophic Test Action (rel. uterus wgt)” value ([3]; dose 1 ug/animal) was 23.8 ± 2.8. For the same compound, the “Uterotrophic Test Action (rel. uterus wgt)” value ([3]; dose 5 ug/animal) was 17.7 ± 3.2, the “Uterotrophic Test Action (rel. uterus wgt)” value ([3]; dose 25 ug/animal) was 16.3 ± 3.0 and the “RBA (relative binding affinity for the estrogen receptor)” value [5] was 19. The inhibition in vivo at 0.125 mg [4, 7] was 59%, the inhibition in vivo at 0.005 mg [4, 8] was 6% and the “Antiuterotrophic Test Action” value [4, 9] was 48.7 ± 9.1. The inhibition in vivo at 0.025 mg [4, 8] was 22% and the “Antiuterotrophic Test Action” value [4, 10] was 42.9 ± 4.7.
In the case of `Cc1c(-c2ccc(O)cc2)n(CCCCCC(=O)NCc2ccccc2)c2ccc(O)cc12` [Compound 20, 1-(6-Benzylcarbamoylpentyl)-5-hydroxy-2-(4-hydroxyphenyl)-3-methylindole], the activity at 10 µM ([1]; MCF7) is reported as 26.8 ± 4.2%, the activity at 1 µM ([1]; MCF7, MCF-7, 1 × 10^-6 M) is reported as 46.8 ± 4.2% and the activity at 0.1 µM ([1]; MCF7, MCF-7, 1 × 10^-7 M) is reported as 58.3 ± 4.9%. The activity at 5 µM ([1]; MCF7, MCF-7, 5 × 10^-6 M) was 36.6 ± 2.5%, the activity at 0.5 µM ([1]; MCF7, MCF-7, 5 × 10^-7 M) was 47.9 ± 3% and the “Uterotrophic Test Action (rel. uterus wgt)” value ([3]; dose 5 ug/animal) was 16.5 ± 3.6. For the same compound, the “Uterotrophic Test Action (rel. uterus wgt)” value ([3]; dose 25 ug/animal) was 20.9 ± 6.5, the “Uterotrophic Test Action (rel. uterus wgt)” value ([3]; dose 625 ug/animal) was 19.9 ± 4.1 and the “RBA (relative binding affinity for the estrogen receptor)” value [5] was 12. The “Antiuterotrophic Test Action” value [4, 9] was 50.7 ± 5.0, the inhibition in vivo at 0.025 mg [4, 8] was 12% and the “Antiuterotrophic Test Action” value [4, 10] was 46.9 ± 7.7. For the same compound, the “Antiuterotrophic Test Action” value [4, 11] was 59.5 ± 12.4 and the inhibition in vivo at 0.625 mg [4, 12] was -23%.
